Data set [1] can be described thus: Stability test in liver microsomes (mouse). It is filed as in vitro ADME. Conditions: mouse liver microsomes 0.5 mg/mL, 1 μM compound. As to the method:
Both male CD-1 mouse pooled liver microsomes and male SD rat pooled liver microsomes were purchased from BioreclamationIVT Corporation, USA.
The test compound stock solution was diluted with an organic solvent (usually a mixture of acetonitrile, methanol and water with various ratios, depending on the solubility of the compound, if necessary, 1 N hydrochloric acid or 1 N sodium hydroxide would be added to facilitate solubilization) to the 0.1 mM (the final concentration of the compound in the reaction system was 1 μM) and the concentration percentage of the organic solvents in the incubation system no more than 1% (wherein the percentage of DMSO was required to be no more than 0.1%). An appropriate amount of 100 mM NADP, 500 mM G-6-P and 100 Unit/mL G-6-PDH were mixed and diluted with ultrapure water (the final system contains 1 mM NADP, 5 mM G-6-P and 1 Unit/mL G-6-PDH), pre-incubated in a 37° C. water bath for 10 minutes and then placed on ice for use as a NADPH regeneration solution. 20 mg/mL liver microsomes solution and 200 mM phosphate buffer were mixed, and diluted with ultrapure water to give a liver microsomes solution containing 2.5 mg/mL liver microsomes (the final concentration of the reaction system is 0.5 mg/mL) and 50 mM phosphate buffer. The diluted liver microsomes solution was mixed with 0.1 mM compound solution, a mixture of 100 mM EDTA, 300 mM MgCl2 solution, 200 mM phosphate buffer (the final system was 3 mM MgCl2, 1 mM EDTA and 50 mM phosphate buffer) and water in an appropriate volume was added. Finally, the NADPH regeneration solution was added, then the reaction solution was placed in a 37° C. water bath to start the reaction (the reaction time was 30 minutes), and the reaction was stopped by adding the ice-cold acetonitrile reaction stopping solution containing the internal standard. The 0-minute sample was not incubated in a 37° C. water bath, and its difference from the 30-minute sample further lies in that the ice-cold acetonitrile reaction stopping solution containing the internal standard was added first, and then the NADPH regeneration solution was added. The sample added with the reaction stopping internal standard solution was vortexed and mixed well, and then centrifuged at 4400 rpm for 10 minutes. The supernatant was taken and diluted ten times with 50% methanol for LC-MS/MS analysis.
LC-MS/MS was used to determine the concentration of the compound in the sample. The percentage of the remaining compound after 30 minutes of incubation comparing with that in the 0-minute sample was calculated using the peak area ratio of the compound to the internal standard as an indicator, to evaluate the metabolic stability of the compound.

Data set [2] concerns rat arthritis model induced by type II collagen. Briefly: Rat arthritis model induced by type II collagen (CIA), paw volume. Type of data set: in vivo. Conditions: for inhibition ratio of area under the curve (IRAUC) of paw swelling: Day 13 to Day 19. As for the experimental part: An appropriate amount of bovine type II collagen (CII, Chondrex (Redmond, WA, USA), Cat #20021) was weighed and dissolved in 0.1 mole of acetic acid (SPGC Sinopharm Chemical Reagent Co., Ltd (Shanghai, P.R. China), Cat #: 10000218.), which was formulated into a solution with a concentration of 6 mg/mL, stirred at 4° C. overnight, and added with an equal volume of Freund's incomplete adjuvant (Sigma-Aldrich. (St. Louis, MO, USA), Cat #: SLBW0366.), fully emulsified to prepare an emulsion with a CII concentration of 3 mg/mL.
Female Lewis rats were purchased from Beijing Vital River Laboratory Animal Technology Co., Ltd. (certificate number 20200928Aazz0619000579, initial body weight of 110-130 grams), and 6 rats were randomly selected as a normal group; and all of the remaining rats were immunized. In the first immunization on day 0, the rats except those in the normal group were anesthetized with isoflurane (Hebei Yipin Pharmaceutical Co., Ltd., Lot: C002170601.), and then disinfected with 75% alcohol, and 0.2 mL of emulsion was injected intradermally at the base of the tail thereof. A second challenge was carried out on day 7, and 0.2 mL of emulsion was intradermally injected using the same method. Once the animals developed symptoms on day 10, the incidence conditions thereof were closely monitored.
After grouping, the normal group was not administered, and the rats in the other groups were administered with the control vehicle, 0.25 mg/kg and 4 mg/kg of the reference GDC-0853, and each dose of compound 1 orally once a day until the end of the experiment.
The paw volume was measured on day 10 after immunization, and the left and right hind paw volumes (V) were measured every day after the paw volume increase was detected.
The arthrosis paw volumes of the left and right hind limbs of each animal were measured, and the average paw volume (APV) was calculated according to the following formula:
Average paw volume APV=(Vleft+Vright)/2
The average arthrosis paw volume of each animal before administration was used as the baseline (or considered […] of inflammation). The averaged paw swelling (APS) of each animal is calculated according to the following formula, wherein, APVd1 is the average paw volume of the animal administered on day 1, and APVdt is the average paw volume of the animal administered on day t:
The averaged paw swelling APSdt=(APVdt−APVd1)
The area under the curve (AUC) of the average paw volume swelling is the area under the curve of the arthrosis score swelling calculated by the trapezoid method, and the calculation formula is:
AUCAPS=½×(APSd1+APSd2)×(d2−d1)+½×(APSd2+APSd3)×(d3−d2)+ . . . +½×(APSdn+APSd(n-1))×(dn−dn-1).
Inhibition ratio IRAUC%=(Mean AUCAPS in the model group−AUCAPS in the drug-treated group)/(Mean AUCAPS in the model group−Mean AUCAPS in the normal group)×100%.

The values below come from patent publication US20230382916A1, “HETEROARYL HETEROCYCLIC COMPOUNDS AND USES THEREOF” (HUTCHISON MEDIPHARMA LIMITED, priority 2020, published 2023).

For `C[C@H]1CN(C2COC2)C[C@H](C)N1c1ccc(Nc2cc(-c3ccnc(-n4ccn5c6c(cc5c4=O)CC(C)(C)C6)c3CO)cn(C)c2=O)nc1` [Compound 1, 2-(5-((5-((2S,6S)-2,6-dimethyl-4-(oxetan-3-yl)piperazin-1-yl)pyridin-2-yl)amino)-3′-(hydroxymethyl)-1-methyl-6-oxo-1,6-dihydro-[3,4′-bipyridin]-2′-yl)-7,7-dimethyl-7,8-dihydro-2H-cyclopenta[4,5]pyrrolo[1,2-a]pyrazin-1(6H)-one], in data set [1], the “MLM, percentage of the remaining compound after 30 minutes of incubation” value stood at 91.6%. The “inhibition ratio of area under the curve (IRAUC) of paw swelling” value was found to be 76.2% in data set [2] (0.06 mg/kg oral QD), 83.1% in data set [2] (0.25 mg/kg oral QD) and 200.2% in data set [2] (4 mg/kg oral QD). Also, the “effect on paw volume compared with vehicle control group” value in data set [2] (0.25 mg/kg oral QD) and in data set [2] (4 mg/kg oral QD) was “significantly increase the continuous improvement of paw volume swelling” each time. Besides, the minimum effective dose in data set [2] (oral QD, paw swelling) was found to be 0.06 mg/kg/day.
